Measurements: the SangsterLogP compilation

Assay: not given
Settings: pH 3.0

logD	Structure (SMILES)
4.25	N#CC(C#N)=NNc1ccc(/N=N/c2ccccc2)cc1
1.83	CC(=O)Nc1ccc(NN=C(C#N)C#N)cc1

Structure (SMILES)	logD
N#CC(C#N)=NNc1ccc(OC(F)(F)F)cc1	3.68

Same assay, conditions: pH 7.2

logD	Structure (SMILES)
2.44	N#CC(C#N)=NNc1ccc(CCCl)cc1

Assay: not given
Settings: not given

logP	Structure (SMILES)
0.95	COC(=O)CS(=O)(=O)c1ccccc1[N+](=O)[O-]
1.69	COC(=O)CS(=O)c1ccc([N+](=O)[O-])cc1Cl (stereo unspecified)
2.01	CC(C)OC(=O)CS(=O)(=O)c1ccc([N+](=O)[O-])cc1[N+](=O)[O-]
2.03	COC(=O)CSc1ccc([N+](=O)[O-])cc1[N+](=O)[O-]

Assay: not given
Settings: not given
Remark: another data set of the same source

Structure (SMILES)	logP
COP(N)(=S)Oc1ccccc1C(=O)OC(C)C (stereo unspecified)	2.7
CC1(C)[C@H](C(=O)OCc2coc(Cc3ccccc3)c2)[C@@H]1/C=C1/CCSC1=O	4.31
CNC(=O)ON=C(CS(C)=O)C(C)(C)C (stereo unspecified)	2.75
COc1ccc(C(OC(C)=O)C(Cl)(Cl)Cl)cc1 (stereo unspecified)	3.72

Assay: not given
Settings: not given
Remark: another data set of the same source

logP	Structure (SMILES)
3.68	c1ccc2nn(C34CC5CC(CC(C5)C3)C4)cc2c1
2.95	c1nnn(C23CC4CC(CC(C4)C2)C3)n1
3.52	c1ccc2c(c1)nnn2C12CC3CC1CCC2C3 (stereo unspecified)
5.55	c1ccc(C23CC4CC(CC(C4)C2)C3)cc1

Assay: method code SF, from PMID: 718082
Settings: not given

logP	Structure (SMILES)
-1.05	CC(=O)Nc1c(I)c(NC(C)=O)c(I)c(C(=O)O)c1I
-1.26	CNC(=O)c1c(I)c(NC(C)=O)c(I)c(OCC2OC(O)C(O)C(O)C2O)c1I (stereo unspecified)
-1.15	CNC(=O)c1c(I)c(NC(C)=O)c(I)c(C(=O)O)c1I
-2.22	OC[C@H]1O[C@@H](Oc2cc(O[C@@H]3O[C@H](CO)[C@@H](O)[C@H](O)[C@H]3O)c(I)c(O[C@@H]3O[C@H](CO)[C@@H](O)[C@H](O)[C@H]3O)c2I)[C@H](O)[C@@H](O)[C@@H]1O

Assay: not given
Settings: not given
Remark: another data set of the same source

logP	Structure (SMILES)
3.27	Cc1cc(O)cc(C)c1Cl
3.05	CC(C)(C)c1cccc(O)c1
2.48	Cc1cccc(O)c1C

Structure (SMILES)	logP
CCC(C)c1ccc(O)cc1 (stereo unspecified)	3.32

Assay: not given
Settings: not given
Remark: another data set of the same source

logP	Structure (SMILES)
-0.66	O=[N+]([O-])c1nccn1[C@@H]1S[C@H](CO)[C@@H](O)[C@H](O)[C@H]1O
0.52	CC(=O)OC[C@H]1O[C@@H](n2ccnc2[N+](=O)[O-])[C@H](OC(C)=O)[C@@H](OC(C)=O)[C@@H]1OC(C)=O
0.63	CC(=O)OC[C@H]1S[C@@H](n2ccnc2[N+](=O)[O-])[C@H](OC(C)=O)[C@@H](OC(C)=O)[C@@H]1OC(C)=O
-1.4	O=[N+]([O-])c1nccn1[C@@H]1O[C@H](CO)[C@@H](O)[C@H](O)[C@H]1O

Assay: not given
Settings: not given
Remark: another data set of the same source

Structure (SMILES)	logP
CC(C)NCc1ccccc1	1.83
CCNCc1ccccc1	1.82
CC(N)CCc1ccccc1 (stereo unspecified)	2.12
CCCCNCc1ccccc1	2.59

Assay: not given
Settings: not given
Remark: another data set of the same source

logP	Structure (SMILES)
3.02	CC(C)(C)OC(=O)Oc1ccccc1
2.56	O=C(O)CCCCCOC(=O)Oc1ccccc1
2.18	CCOC(=O)Oc1ccccc1
0.73	O=C(O)[C@H]1O[C@@H](Oc2ccccc2)[C@H](O)[C@@H](O)[C@@H]1O

Assay: not given
Settings: not given
Remark: another data set of the same source

Structure (SMILES)	logP
C=CCN1CCc2cccc(Cl)c2CC1	3.3
CN1CCc2cccc(Cl)c2CC1	2.92
NC(=O)CCN1CCc2cccc(Cl)c2CC1	1.64
NC(=O)NCCN1CCc2cccc(Cl)c2CC1	2.07

Assay: method code SF-AS, from DOI: 10.1021/jf950378u
Settings: not given

logP	Structure (SMILES)
0.32	COc1ccc([C@@H]2CC(=O)c3c(O)cc(O[C@@H]4O[C@H](CO[C@@H]5O[C@@H](C)[C@H](O)[C@@H](O)[C@H]5O)[C@@H](O)[C@H](O)[C@H]4O)cc3O2)cc1O
0.62	O=C(O)/C=C/c1ccccc1O
1.31	Oc1cc(O)c2c(c1)O[C@H](c1ccc(O)c(O)c1)[C@@H](O)C2
0.71	O=c1ccc2ccc(O)c(O)c2o1

Assay: method code SF-AS, from DOI: 10.1007/bf01648987
Settings: not given

logP	Structure (SMILES)
1.2	CC(=O)N(CCCl)c1ccc(CC(=O)O)cc1
2.78	CC(=O)Oc1cccc2ccccc12
2.04	CCN(CCOC(C)=O)c1ccccc1
1.62	CC(=O)OC(OC(C)=O)c1ccccc1

Assay: not given
Settings: not given
Remark: another data set of the same source

logP	Structure (SMILES)
2.92	CSc1nc(NCCC=O)nc(NC(C)(C)C)n1
4.39	CSc1nc(NC(C)(C)C)nc(NC(C)(C)C)n1
2.54	CSc1nc(N)nc(NC(C)(C)C)n1
3.38	CSc1nc(NC2CC2)nc(NC(C)(C)C)n1

Assay: method code SF-AS, from DOI: 10.1002/ddr.430140205
Settings: pH 7.4

logD	Structure (SMILES)
1	O=C1CCC(c2ccc(-n3ccnc3)cc2)=NN1
1.55	CSc1ccc(C(=O)c2[nH]c(=O)[nH]c2C)cc1
0.58	COc1ccc(CC2CNC(=O)C2)cc1OC (stereo unspecified)
0.18	O=C1CCC(c2ccncc2)=NN1

Assay: method code SF, from DOI: 10.1016/0378-5173(86)90155-9
Settings: pH 7.0

logD	Structure (SMILES)
1.1	CS(=O)(=O)CCCOc1ccc([N+](=O)[O-])cc1
0.97	NS(=O)(=O)CCCOc1ccc([N+](=O)[O-])cc1
1.39	NC(=O)CCCCOC(=O)c1ccccc1
3.24	CSCCCOc1ccc([N+](=O)[O-])cc1

Assay: method code SF-AS, from DOI: 10.1016/0021-9673(94)89049-8
Settings: pH 7.0

logD	Structure (SMILES)
-0.06	Nc1ncnc2c1ncn2[C@@H]1O[C@H](CCl)[C@@H](O)[C@H]1O
-0.8	Nc1nc(F)nc2c1ncn2[C@@H]1O[C@H](CO)[C@@H](O)[C@H]1O
-0.37	Nc1nc(Cl)nc2c1ncn2C1OC(CO)C(O)C1O (stereo unspecified)
0.03	Nc1nc(Cl)nc2c1ncn2[C@H]1C[C@H](O)[C@@H](CO)O1

Assay: method code SF-AS, from DOI: 10.1016/0223-5234(93)90135-2
Settings: pH 12.2

Structure (SMILES)	logD
NCCc1nc(-c2ccccc2)cs1	2.22
NCCc1cn2ccccc2n1	0.59
CNCCc1ccccn1	0.68
CN(C)CCc1ccccn1	1.12

Assay: method code SF-AS, from DOI: 10.1080/00021369.1974.10861343
Settings: not given

logP	Structure (SMILES)
3.02	COC(=O)C=COc1ccccc1Cl
2.68	COC(=O)/C=C/Oc1ccccc1
3.55	CCOC(=O)C=COc1ccccc1Cl

Same assay, conditions: pH 3.0

logD	Structure (SMILES)
3.46	O=C(O)/C=C/Oc1ccc(Cl)cc1Cl

Assay: method code SF-HPLC, from DOI: 10.1021/jm100498u, PMID: 20704351
Settings: pH 7.4

Structure (SMILES)	logD
C[C@H](c1ccccc1)n1cncc1C(=O)OCCC1(C)N=N1	3.6
CCCCCC1(CCO)N=N1	2.55
C[C@H](c1ccccc1)n1cncc1C(=O)OCc1ccc(C2(C(F)(F)F)N=N2)cc1	4.3
C[C@H](c1ccccc1)n1cncc1C(=O)OCc1ccc(C(=O)c2ccccc2)cc1	4.4

Assay: method code SF-AS, from DOI: 10.1002/jps.2600741028, PMID: 4078715
Settings: not given

logP	Structure (SMILES)
3.37	CC(C)c1ccc(C=[N+]([O-])c2ccccc2)cc1
1.88	[O-][N+](=Cc1ccccc1)c1ccccc1
2.74	Cc1cccc(C)c1C#[N+][O-]
2.41	Cc1ccc(C=[N+]([O-])c2ccccc2)cc1

Assay: method code SF-HPLC, from DOI: 10.1023/a:1016462801968, PMID: 3334410
Settings: not given

logP	Structure (SMILES)
-0.88	COC(=O)OCC(COC(=O)OC)OCn1cnc2c(=O)[nH]c(N)nc21
-1.66	Nc1nc2c(ncn2COC(CO)CO)c(=O)[nH]1
0.83	CCCC(=O)OCC(COC(=O)CCC)OCn1cnc2c(=O)[nH]c(N)nc21
-0.14	CCC(=O)OCC(COC(=O)CC)OCn1cnc2c(=O)[nH]c(N)nc21

Assay: method code SF-HPLC, from DOI: 10.1016/j.bmcl.2010.02.057, PMID: 20231095
Settings: pH 7.4

logD	Structure (SMILES)
1.51	COC(=O)c1sc2cc(O)c(O)cc2c1Cl
2.45	CCCOC(=O)c1sc2cc(O)c(O)cc2c1Cl
2.91	CC(C)C(=O)OCOC(=O)c1sc2cc(O)c(O)cc2c1Cl
3.02	CC(OC(=O)c1sc2cc(O)c(O)cc2c1Cl)OC(=O)C(C)C (stereo unspecified)

Assay: method code SF, from DOI: 10.1111/j.2042-7158.1971.tb08772.x, PMID: 4401532
Settings: pH 7.2

logD	Structure (SMILES)
1.25	CC(=O)Nc1ccc(C=O)cc1
1.66	CC(=O)Nc1ccc([N+](=O)[O-])cc1
1.4	CC(=O)Nc1ccc(C)cc1
2.46	CC(=O)Nc1ccc(I)cc1

Assay: method code SF-AS, from DOI: 10.1111/j.2042-7158.1979.tb13606.x, PMID: 41067
Settings: pH 1.2

logD	Structure (SMILES)
2.33	COc1ccc(CCCC(=O)O)cc1
1.16	O=C(O)CCc1ccc(O)cc1
1.48	COc1ccc(CC(=O)O)cc1
1.95	CCOc1ccc(CC(=O)O)cc1
